Paper PMC6347603, “N^+-C-H···O Hydrogen bonds in protein-ligand complexes” (Scientific Reports, 2019)
pIC50, pKd: −log10 of the molar value.

Columns and labels:
G9a-like protein (GLP) = target: T1, G9a-like protein (GLP) (Homo sapiens, UniProt Q9H9B1); test: GLP activity assay (GLP Chemiluminescent Assay Kit); type: biochemical; details: for pIC50: 2 μM SAM, 40 ng GLP, 120 min, room temperature, mean values of at least three experiments, read-out: In vitro GLP-inhibitory activity IC50
T1 construct: purchased BPS Bioscience, Inc. 53007
T1 sequence (Q9H9B1 1-1298): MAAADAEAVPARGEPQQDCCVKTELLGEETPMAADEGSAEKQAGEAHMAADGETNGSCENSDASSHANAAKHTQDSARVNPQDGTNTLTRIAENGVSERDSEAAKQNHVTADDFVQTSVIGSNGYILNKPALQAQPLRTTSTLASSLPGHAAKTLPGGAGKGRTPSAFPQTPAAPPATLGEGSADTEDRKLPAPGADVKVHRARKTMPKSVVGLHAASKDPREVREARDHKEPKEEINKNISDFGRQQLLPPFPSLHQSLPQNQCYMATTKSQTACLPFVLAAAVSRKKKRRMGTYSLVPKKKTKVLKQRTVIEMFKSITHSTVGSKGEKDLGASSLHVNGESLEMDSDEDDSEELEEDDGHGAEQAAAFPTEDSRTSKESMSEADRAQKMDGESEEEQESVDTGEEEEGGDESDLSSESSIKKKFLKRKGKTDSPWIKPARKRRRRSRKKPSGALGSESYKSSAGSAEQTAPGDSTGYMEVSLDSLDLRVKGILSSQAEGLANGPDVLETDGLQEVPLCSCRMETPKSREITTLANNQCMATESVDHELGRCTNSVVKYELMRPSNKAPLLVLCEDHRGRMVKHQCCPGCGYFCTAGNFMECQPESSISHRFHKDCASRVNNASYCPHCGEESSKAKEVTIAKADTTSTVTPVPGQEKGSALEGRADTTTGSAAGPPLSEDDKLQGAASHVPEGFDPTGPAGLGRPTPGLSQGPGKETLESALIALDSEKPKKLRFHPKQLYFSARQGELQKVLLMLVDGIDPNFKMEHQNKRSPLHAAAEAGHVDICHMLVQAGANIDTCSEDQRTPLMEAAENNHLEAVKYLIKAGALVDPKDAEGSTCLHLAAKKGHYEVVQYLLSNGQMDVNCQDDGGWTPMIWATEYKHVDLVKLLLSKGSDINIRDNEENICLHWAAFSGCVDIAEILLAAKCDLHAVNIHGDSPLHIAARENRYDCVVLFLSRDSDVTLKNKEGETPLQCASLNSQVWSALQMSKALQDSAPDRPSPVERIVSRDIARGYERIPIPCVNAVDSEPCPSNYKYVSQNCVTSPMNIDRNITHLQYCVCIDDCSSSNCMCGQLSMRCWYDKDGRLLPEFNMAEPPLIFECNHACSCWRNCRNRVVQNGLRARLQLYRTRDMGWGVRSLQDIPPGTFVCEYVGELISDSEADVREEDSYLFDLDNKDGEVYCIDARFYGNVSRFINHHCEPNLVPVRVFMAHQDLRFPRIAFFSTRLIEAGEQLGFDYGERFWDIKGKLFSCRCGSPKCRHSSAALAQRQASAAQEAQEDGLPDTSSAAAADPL
Method: The GLP activity assay was carried out using a GLP Chemiluminescent Assay Kit (Catalog #53007, BPS Bioscience, Inc.). Microwells were rehydrated by adding 200 μL of tris buffered saline with Tween 20 (TBS-T: 1x TBS, pH = 8.0, containing 0.05% Tween-20) to every well, followed by incubation at room temperature for 45 minutes. After removing TBS-T, the inhibitors were incubated in the presence of 2 μM SAM and 40 ng of GLP in the supplied buffer on the microwells of (120 min, room temperature, total volume: 50 μL). After the enzymatic reaction, every well was washed three times with TBS-T (100 μL) and blocked for 10 min with blocking buffer. Then, 100 μL of primary anti-body solution (1:400 dilution) were added to the microwells, followed by incubation (2 h). The wells were probed with the primary antibody, washed three times with TBS-T (100 μL), incubated (2 h, room temperature) with sheep secondary anti-body (1:1000 diluted), and again washed three times with TBS-T (100 μL). The chemiluminescence of the wells, to which detection reagents were added, was measured on a chemiluminescence reader (ARVO X3 Multilabel Plate Reader), and the values of % inhibition were calculated from the chemiluminescence readings of inhibited wells relative to those of control wells.

GLP recombinant protein = target: T2, GLP recombinant protein (Homo sapiens, UniProt Q9H9B1); test: Isothermal titration calorimetry (ITC) of GLP inhibitors binding to GLP; details: 25 °C, 20 mM Tris pH 8.0, 150 mM NaCl, 2% DMSO, 50 μM AdoMet; for pKd: 10 μM GLP, 100 μM inhibitor, one-site binding model, read-out: dissociation constant KD (ITC); for −TΔS (ITC): calculated from ΔG = ΔH − TΔS
T2 construct: purchased Active Motif, Inc. 31920
T2 sequence (Q9H9B1 1-1298): T1 sequence (Q9H9B1 1-1298)
Method: A GLP recombinant protein solution (Catalog #31920, Active Motif, Inc.) was concentrated by ultrafiltration and the buffer was replaced with test buffer (20 mM Tris pH 8.0, 150 mM NaCl, 2% DMSO and 50 μM AdoMet). ITC measurements of GLP inhibitors binding to the GLP were recorded at 25 °C using a MicroCal PEAQ-ITC microcalorimeter (Malvern Panalytical) in the test buffer. The titrations were performed using 10 μM GLP solution in the sample cell and 100 μM inhibitor solution in the syringe. A typical experiment consisted of 19 injections under the following parameters: one injection of 0.4 μL followed by 18 injections of 2.0 μL; 150 s spacing between injections; 750 rpm stirring speed; and reference power set to 5 μcal s^−1. The heat of dilution of the ligand into the buffer measured independently was essentially similar to the heat signal obtained at the end of the titration; so the signal of the last injection was used as the background heat signal. The experimental data were analyzed using the MicroCal PEAQ-ITC Analysis software (Malvern Panalytical), and fitted using the one-site binding model. Values of ΔG, KD, and −TΔS were calculated using the thermodynamic relationships, ΔG = −RT lnKa, KD = 1/Ka, and ΔG = ΔH − TΔS.
Figure S20. Determination of the disassociation constant and thermodynamic parameters of 14a–14c by isothermal titration calorimetry (ITC). (A–C) The binding of (A) 14a, (B) 14b and (C) 14c to GLP are measured by ITC. The titrations were conducted in buffer containing 20 mM Tris pH 8.0, 150 mM NaCl, 2% DMSO and 50 μM AdoMet. The sample chamber and syringe were filled with 10 μM GLP and 100 μM inhibitor, respectively. (D) Summary of disassociation constant and thermodynamic parameter profiles of 14a–14c.

Row | SMILES | pIC50 (G9a-like protein (GLP)) | ΔH (ITC) (GLP recombinant protein) [kcal/mol] | pKd (GLP recombinant protein) | −TΔS (ITC) (GLP recombinant protein) [kcal/mol] | GLP inhibition (result in words) (G9a-like protein (GLP); up to 3 μM)
1 | COc1cc2nc(NCCCN(C)C)nc(NC3CCN(Cc4ccccc4)CC3)c2cc1OC [Compound 14a] | 6.81 | -10.7 | 6.77 | 1.42 | 
2 | CNCCCNc1nc(NC2CCN(Cc3ccccc3)CC2)c2cc(OC)c(OC)cc2n1 [Compound 14b, N^4-(1-Benzylpiperidin-4-yl)-6,7-dimethoxy-N^2-[3-(methylamino)propyl]quinazoline-2,4-diamine] | 6.18 | -8.58 | 6.21 | 0.10 | 
3 | COc1cc2nc(NCCCN)nc(NC3CCN(Cc4ccccc4)CC3)c2cc1OC [Compound 14c] | 5.84 | -7.04 | 6.03 | -1.19 | 
4 | COc1cc2nc(NCCCC(C)C)nc(NC3CCN(Cc4ccccc4)CC3)c2cc1OC [Compound 14d] |  |  |  |  | did not show any GLP inhibition
